Test results reported in ChEMBL document CHEMBL2074502, “Effect of furanocoumarin derivatives in grapefruit juice on the uptake of vinblastine by Caco-2 cells and on the activity of cytochrome P450 3A4” (Br J Pharmacol, 2000).

Target: ATP-dependent translocase ABCB1 (Homo sapiens, UniProt P08183)
Test: TP_TRANSPORTER: increase uptake (Vinblastine: 0.01 uM) in Caco-2 cells
Type: functional, cell-based

Chain of ATP-dependent translocase ABCB1 (P08183 whole entry): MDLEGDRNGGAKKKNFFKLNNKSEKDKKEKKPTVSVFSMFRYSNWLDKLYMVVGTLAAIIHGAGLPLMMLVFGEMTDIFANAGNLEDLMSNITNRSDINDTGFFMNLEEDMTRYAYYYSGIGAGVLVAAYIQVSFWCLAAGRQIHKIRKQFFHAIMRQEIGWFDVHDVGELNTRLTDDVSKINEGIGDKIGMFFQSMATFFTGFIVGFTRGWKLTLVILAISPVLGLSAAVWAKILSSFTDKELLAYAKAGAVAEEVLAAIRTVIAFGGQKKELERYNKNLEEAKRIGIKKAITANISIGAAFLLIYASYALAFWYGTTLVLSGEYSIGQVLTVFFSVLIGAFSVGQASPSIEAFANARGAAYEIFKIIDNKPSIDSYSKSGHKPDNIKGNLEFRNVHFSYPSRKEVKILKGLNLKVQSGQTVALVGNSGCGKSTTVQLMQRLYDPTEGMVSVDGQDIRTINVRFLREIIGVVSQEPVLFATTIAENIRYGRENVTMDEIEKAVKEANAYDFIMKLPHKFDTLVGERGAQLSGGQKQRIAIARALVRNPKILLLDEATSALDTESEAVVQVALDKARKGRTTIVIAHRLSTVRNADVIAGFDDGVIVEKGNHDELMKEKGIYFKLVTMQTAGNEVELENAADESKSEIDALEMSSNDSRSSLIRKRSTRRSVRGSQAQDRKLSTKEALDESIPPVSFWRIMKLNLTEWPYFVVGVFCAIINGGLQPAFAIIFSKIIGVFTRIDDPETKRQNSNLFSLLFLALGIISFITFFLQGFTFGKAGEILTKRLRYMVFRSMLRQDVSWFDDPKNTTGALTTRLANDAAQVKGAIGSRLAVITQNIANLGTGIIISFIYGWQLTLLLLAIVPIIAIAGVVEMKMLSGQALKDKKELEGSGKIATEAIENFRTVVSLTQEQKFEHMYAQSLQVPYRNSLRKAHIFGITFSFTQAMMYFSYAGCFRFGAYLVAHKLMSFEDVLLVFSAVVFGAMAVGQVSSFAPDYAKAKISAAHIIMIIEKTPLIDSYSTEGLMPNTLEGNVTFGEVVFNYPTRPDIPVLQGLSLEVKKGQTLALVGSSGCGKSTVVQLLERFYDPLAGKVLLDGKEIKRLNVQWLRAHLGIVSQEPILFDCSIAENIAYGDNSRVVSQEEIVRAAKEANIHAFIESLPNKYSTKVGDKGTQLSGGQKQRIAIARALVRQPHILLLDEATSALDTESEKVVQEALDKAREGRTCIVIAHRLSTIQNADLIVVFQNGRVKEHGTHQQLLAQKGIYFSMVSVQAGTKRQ

Row | EC200 [µM] | Structure (SMILES)
1 | 0.035 | C/C(=C\COc1c2ccoc2cc2oc(=O)ccc12)CCC(OC(C)(C)C(O)CC/C(C)=C/COc1c2ccoc2cc2oc(=O)ccc12)C(C)(C)O (stereo not given) [FC726]
2 | 0.035 | CC(C)=CCC/C(C)=C/COc1c2ccoc2cc2oc(=O)ccc12 [BERGAMOTTIN]
3 | 0.04 | C/C(=C\COc1c2ccoc2cc2oc(=O)ccc12)CC[C@@H](O)C(C)(C)O

Row | Structure (SMILES) | EC200 [µM]
4 | COc1c2ccoc2cc2oc(=O)ccc12 [BERGAPTEN] | 0.05
5 | O=c1ccc2c(O)c3ccoc3cc2o1 [BERGAPTOL] | 0.3
